Assays:
[1] = test system: acetylated H3 (Ac-H3) in LNCaP cells; assay: Western blot of acetylated histone H3 in LNCaP cells; format: cell-based, human; settings: 24 h at GI50 concentration
Method: (§1) To assess whether the observed antiproliferative activity of the selected compounds was a consequence of HDAC6-targeting, we examined the effect of the cell treatments on the expression levels of acetylated tubulin (Ac-Tub), a well-known HDAC6 target. LNCaP and PC-3 cells were treated with the tested compounds at their GI50 concentrations, and SDS-PAGE and western blot were performed. In addition, the acetylation levels of histone H3, which are mainly regulated by HDAC1, were also evaluated in order to exclude potential class I-HDAC off-target activities. We used Tubastatin-A and Geldanamycin as reference controls for cellular effects resulting from HDAC6- and Hsp90-inhibition, respectively. The results in Figure 2 show a significant increase in α-Tubulin acetylation in LNCaP cells after treatments with compounds 8, 11 and 18. Indeed, these compounds triggered a 2.9-, 5.1-, and 2.5-fold increase, respectively, compared to the control (DMSO). […].
(§2) Figure 2 Western blot analysis and relative quantification of the expression levels of acetylated-Tubulin (Ac-TUB), acetylated H3 (Ac-H3), and HSP70 in LNCaP (A,B) and PC-3 (C,D) cells treated for 24 h at GI50 concentration. Tubastatin-A was used as HDAC6-specific positive control, Geldanamycin (GELDA) as HSP90-specific positive control, and SAHA as pan-HDAC inhibitor. […]

[2] = test system: acetylated H3 (Ac-H3) in PC-3 cells; assay: Western blot of acetylated histone H3 in PC-3 cells; format: cell-based, human; settings: 24 h at GI50 concentration
Method: as §1, §2

HDAC6 recombinant enzyme = target: T1, HDAC6 recombinant enzyme (Homo sapiens, UniProt Q9UBN7); assay: Fluorimetric HDAC6 assay; format: biochemical; settings: singlicate
T1 sequence (Q9UBN7 1-1215): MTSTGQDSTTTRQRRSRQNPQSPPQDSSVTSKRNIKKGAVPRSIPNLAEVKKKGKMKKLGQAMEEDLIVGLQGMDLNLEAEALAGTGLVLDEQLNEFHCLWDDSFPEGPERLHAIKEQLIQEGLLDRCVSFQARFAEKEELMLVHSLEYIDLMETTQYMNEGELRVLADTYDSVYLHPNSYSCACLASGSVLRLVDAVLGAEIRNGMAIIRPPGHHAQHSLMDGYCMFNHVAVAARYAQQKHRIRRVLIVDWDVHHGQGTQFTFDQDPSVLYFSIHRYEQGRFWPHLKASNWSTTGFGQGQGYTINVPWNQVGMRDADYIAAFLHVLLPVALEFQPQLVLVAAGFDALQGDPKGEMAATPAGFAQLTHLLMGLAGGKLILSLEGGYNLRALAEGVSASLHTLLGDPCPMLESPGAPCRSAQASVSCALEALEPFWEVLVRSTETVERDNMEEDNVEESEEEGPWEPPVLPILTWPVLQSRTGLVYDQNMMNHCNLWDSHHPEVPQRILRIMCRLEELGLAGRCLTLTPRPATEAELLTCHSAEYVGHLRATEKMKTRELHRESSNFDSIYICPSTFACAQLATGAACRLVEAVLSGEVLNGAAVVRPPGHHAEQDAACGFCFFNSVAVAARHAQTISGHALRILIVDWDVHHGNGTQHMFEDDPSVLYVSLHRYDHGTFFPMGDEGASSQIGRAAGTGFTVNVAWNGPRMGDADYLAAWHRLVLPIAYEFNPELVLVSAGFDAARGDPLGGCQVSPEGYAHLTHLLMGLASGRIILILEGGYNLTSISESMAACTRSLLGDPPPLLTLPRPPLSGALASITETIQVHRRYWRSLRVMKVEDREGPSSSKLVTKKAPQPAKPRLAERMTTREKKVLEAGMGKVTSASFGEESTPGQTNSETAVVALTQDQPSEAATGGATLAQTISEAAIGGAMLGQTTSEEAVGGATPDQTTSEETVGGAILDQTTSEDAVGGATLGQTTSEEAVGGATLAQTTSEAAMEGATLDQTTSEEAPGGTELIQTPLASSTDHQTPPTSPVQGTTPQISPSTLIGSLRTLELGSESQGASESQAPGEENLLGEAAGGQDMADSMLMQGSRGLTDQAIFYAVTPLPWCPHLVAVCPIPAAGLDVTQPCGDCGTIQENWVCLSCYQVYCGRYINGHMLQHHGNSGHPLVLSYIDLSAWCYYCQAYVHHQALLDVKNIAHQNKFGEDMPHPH
Method: In vitro assessments of compounds on the HDAC6 enzyme were performed, as described in our previous works. […] The blank employed for curve fitting was evaluated on a solution of the buffer containing a concentration of […] of DMSO. IC50 values were calculated by using the GraphPad Prism 4 program based on a sigmoidal dose–response equation.

| SMILES | induction of H3 acetylation [1] | induction of H3 acetylation [2] | IC50 (HDAC6 recombinant enzyme) |
| --- | --- | --- | --- |
| O=C(c1cc(OCc2ccccc2)ccc1O)N1CCC(c2noc(C(F)(F)F)n2)CC1 [Compound 8] | no remarkable induction of H3 acetylation | no remarkable induction of H3 acetylation | 6500 nM |
| CC(C)[C@H](C(=O)NCc1ccc(C(=O)NO)cc1)N1Cc2ccccc2C1=O [Compound 11] |  |  | 5 nM |
| O=C(Nc1ncccc1O)c1ccc(-c2noc(C(F)(F)F)n2)cc1 [Compound 18] |  |  | 2700 nM |

Source: PMC11357446, “Searching for Novel HDAC6/Hsp90 Dual Inhibitors with Anti-Prostate Cancer Activity: In Silico Screening and In Vitro Evaluation” (Pharmaceuticals, 2024)
